Results taken from paper PMC6983093, “Ketoprofen-Based Ionic Liquids: Synthesis and Interactions with Bovine Serum Albumin” (Molecules, 2019).
pIC50: −log10 of the molar value. Where “and” joins values, the source holds several entries; their conditions need not be identical. Equal values may be shown once.

Key:
cytochrome C oxidase = biological target: cytochrome C oxidase; design: method as in doi:10.1016/j.molliq.2017.02.027; conditions: cited from earlier work; for pIC50: read-out: IC50 for the inhibition of cytochrome C oxidase
[1] = biological target: T1, bovine serum albumin (BSA) (Bos taurus, UniProt P02769); assay: BSA fluorescence quenching (Stern–Volmer and double-log analysis); format: binding; conditions: 25 °C; for bimolecular quenching rate constant kq: pH 7.4, τo taken as 10^−8 s; for Binding constant KA / Stern–Volmer quenching constant Ksv: sodium phosphate buffer pH 7.4, 50 mM; for Stern–Volmer quenching constant Ksv: BSA 2 μM, λex 280 nm
T1 construct: Bovine serum albumin (BSA), heat shock fraction, protease-free, fatty acid-free, essentially globulin free (pH 7, ≥98%); purchased Merck (Darmstadt, Germany)
T1 sequence (P02769 25-607): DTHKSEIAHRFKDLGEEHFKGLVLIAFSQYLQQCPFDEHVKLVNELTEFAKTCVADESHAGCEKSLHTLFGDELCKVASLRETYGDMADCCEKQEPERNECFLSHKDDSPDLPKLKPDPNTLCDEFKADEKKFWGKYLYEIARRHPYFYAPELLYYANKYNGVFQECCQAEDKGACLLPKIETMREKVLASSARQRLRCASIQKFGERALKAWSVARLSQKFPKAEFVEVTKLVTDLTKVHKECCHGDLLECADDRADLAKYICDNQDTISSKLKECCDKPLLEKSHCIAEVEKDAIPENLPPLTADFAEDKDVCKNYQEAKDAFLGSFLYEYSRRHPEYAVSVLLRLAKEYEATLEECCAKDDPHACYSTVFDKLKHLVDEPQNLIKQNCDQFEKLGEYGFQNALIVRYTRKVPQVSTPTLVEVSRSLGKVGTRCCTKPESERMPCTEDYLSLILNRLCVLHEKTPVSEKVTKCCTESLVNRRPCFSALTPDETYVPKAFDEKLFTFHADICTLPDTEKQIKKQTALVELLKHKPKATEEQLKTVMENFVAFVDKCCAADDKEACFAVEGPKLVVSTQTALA
Method: The fluorescence quenching data are analyzed according to the Stern–Volmer Equation (1):(1) Fo/F=1+kqτqo[Q]=1+Ksv[Q], where Fo and F is the fluorescence peak intensities in the absence and in the presence of quencher.
The maximum scatter quenching constant Kq that is due to collisions between biomolecules is 2 × 10^10 L mol^−1 s^−1 [33].
The dependence of log(Fo−F/F) vs. log[Q] is linear with a slope equal to the number of the binding sites, and y-intercept corresponds to the log of the effective binding constant (KA).
All fluorescence measurements were carried out on Perkin Elmer LS 55 fluorimeter equipped with a 1.0 cm quartz cuvette.
(§1) BSA-ILs incubated 1 hour prior to the measurements.

[2] = biological target: T1, bovine serum albumin (BSA); assay: Steady-state FRET between BSA fluorophores and compound; format: binding; conditions: [BSA] = [Quencher] = 2 μM; T = 25 °C
From the text: The following equations are used to estimate the steady-state FRET parameters:(3) E=1−F/Fo=Ro^6/Ro^6+ro^6, (4) Ro^6=8.8x10^−25K^2n^−4ϕJ, (5) J=∑F(λ)ε(λ)λ^4Δλ/∑F(λ)Δλ, where E is energy transfer efficacy, Ro is the characteristic distance called Förster distance or critical distance at which the energy transfer efficacy is 50%, ro is the distance between the quencher (drug) and the BSA fluorophores. […] F(λ) is the fluorescence intensity of the fluorescence of the donor, ε(λ) (L mol^−1 cm^−1) is the molar absorption coefficient of the acceptor at wavelength λ.
as §1

[3] = biological target: T1, bovine serum albumin (BSA); assay: ATR-FTIR analysis of the Amide I band of BSA-compound complexes (secondary structure); conditions: for α-Helices, Relative Area of Amide I band component: BSA 0.3 mM : compound 1:1, phosphate buffer pH 7.4, 50 mM, native BSA 47.3; for Unordered Structures, Relative Area of Amide I band component: '-' = no band, native BSA 21
Method: In the spectra of proteins, the Amide I band region (1700–1600 cm^−1) is mainly due to the starching vibrations of the carbonyl group (80%) and is highly sensitive to the changes in the geometry and the environment of the amide bonds. […] The band assignments were done according to Jackson and Mantsch and the analysis of the structure was taken into consideration the data on the BSA available in the literature.
The spectra of the proteins were referenced to the respective spectra of 50 mM sodium phosphate buffer, pH 7.4 containing the same amount of the corresponding IL.
Then the ATR-FTIR spectra were Fourier deconvoluted by Opus software version 5.5 using a bandwidth of 12 cm^−1, 2.9 resolution enhancement factor, and Lorentzian lineshape. Second derivative spectra were obtained using the Savitzky-Golay algorithm based on 17 smoothing points. Then, the relative contribution of each band component of the Amide I band was determined by curve fitting following the procedure of the OPUS program. In the fitting, the number of components and the initial values of their position were set as determined from the second derivative spectra. The initial bandwidth of all components was set to 12 cm^−1 and the components were approximated by mixed Lorentzian/Gaussian functions. The curve-fitting was performed according to the Local Least Squares algorithm. The assignment of the Amide I band positions to the secondary structure was done according to [36].

[4] = Thermogravimetric analysis (thermal stability, TG); conditions: heating 10 °C min^−1, air atmosphere
[5] = BSA:compound 1:1, pH 7.4, one value per band, in the order of the band positions of the column to the left

Compound | pIC50 (cytochrome C oxidase) | bimolecular quenching rate constant kq [1] | Binding constant KA [1] | Stern–Volmer quenching constant Ksv [1] | EFRET (energy transfer efficacy) [2] | Ro (Förster critical distance) [2] | ro (distance between quencher and BSA fluorophores) [2] | α-Helices, Relative Area of Amide I band component [3] | Effect on the secondary structure of BSA (in words) ([3]; BSA:compound 1:1, pH 7.4) | Unordered Structures, Relative Area of Amide I band component ([3]; BSA:compound 1:1, pH 7.4) | Tonset (onset of the thermal degradation) [4] | Toxicity relative to the parent sodium salt (cytochrome C oxidase) | Aromatic Residues/Aggregated Strands/Antiparallel β-Sheets, Relative Area of Amide I band components [3, 5] | β-Structures, Relative Area of Amide I band components [3, 5]
CC(C(=O)O)c1cccc(C(=O)c2ccccc2)c1 (stereo not shown) [cholinium ketoprofenate] | ~1.67 |  |  |  |  |  |  |  |  |  |  |  |  | 
CC(C(=O)O)c1cccc(C(=O)c2ccccc2)c1 (stereo not shown) [sodium ketoprofenate] | ~6.22 |  |  |  |  |  |  |  |  |  |  |  |  | 
L-Valine Isopropyl Ester Ketoprofenate [[L-ValOiPr][KETO]] |  | 7.1 10^12, L mol^−1 s^−1 | 1.5 10^5, L mol^−1 | 7.1 10^4, L mol^−1 | 0.0625 | 3.38 nm | 5.42 nm | 23.8% | most dramatic changes in the secondary structure | 11.7% |  |  |  | 
L-Valine Ethyl Ester Ketoprofenate [[L-ValOEt][KETO]] |  | 6.3 10^12, L mol^−1 s^−1 | 8.2 10^5, L mol^−1 | 6.3 10^4, L mol^−1 | 0.1830 | 3.43 nm | 4.68 nm | 28.8% |  | 17.25% | 100.4 °C |  |  | 
COc1ccc2cc(C(C)C(=O)[O-])ccc2c1.C[N+](C)(C)CCO (stereo not shown) [cholinium naproxenate] |  |  |  |  |  |  |  |  |  |  |  | more toxic than its parent sodium salt |  | 
L-Valine Propyl Ester Ketoprofenate [[L-ValOPr][KETO]] |  | 7.1 10^12, L mol^−1 s^−1 | 2.3 10^5, L mol^−1 | 7.1 10^4, L mol^−1 | 0.1770 | 3.46 nm | 4.74 nm | 26.9% |  | 29.2% | 52.3 °C |  | 11.0% | 
L-Valine Butyl Ester Ketoprofenate [[L-ValOBu][KETO]] |  | 7.3 10^12, L mol^−1 s^−1 | 7.5 10^5, L mol^−1 | 7.3 10^4, L mol^−1 | 0.0520 | 3.32 nm | 5.48 nm | 27.8% |  |  | 101.1 °C |  |  | 
L-Leucine Ethyl Ester Ketoprofenate [[L-LeuOEt][KETO]] |  | 8.3 10^12, L mol^−1 s^−1 | 7.1 10^5, L mol^−1 | 8.3 10^4, L mol^−1 | 0.0246 | 3.30 nm | 6.14 nm | 36.7% | very close to the native BSA conformation | 21.5% |  |  |  | 13.5% and 13.7%
